Reference: publication PMC8909834, “An Orally Bioavailable and Highly Efficacious Inhibitor of CDK9/FLT3 for the Treatment of Acute Myeloid Leukemia” (Cancers, 2022)

Legend:
[1] = system: MV4-11 tumor xenografts; assay: In vivo xenograft study; conditions: for MST (median survival time): vehicle MST = 38 days; for mice with unmeasurable tumor size (zero tumor volume): day 29, n = 7
Protocol: In vivo xenograft study. The in vivo efficacy of CDDD11-8 on tumors developed in mice from AML cells was evaluated by engrafting 5 × 10^6 MV4-11 cells suspended in a 1:1 mixture of Matrigel^TM (Becton Dickinson, Corning, NY, USA) and serum-free medium (100 µL) subcutaneously into the right flank of female BALB/c nude (nu/nu) mice (6–7 weeks). When the tumor reached a volume of 100–200 mm^3, mice were randomized into 3 groups (n = 7). Mice in G1 received vehicle (acetate buffer at pH 4.74), while mice in G2 and G3 received CDDD11-8, at 75 and 125 mg/kg, respectively. Both CDDD11-8 and vehicle were administered orally, once a day for 28 days. Clinical signs of toxicity were observed daily; body weights were measured daily during the dosing period and every other day thereafter. Tumor dimensions, i.e., length (L) and width (W), were measured every other day using Vernier calipers. The tumor volume was calculated using the formula 0.52 × L × W^2, where L and W are perpendicularly measured diameters and L ≥ W. Mice were humanely killed by CO2 asphyxiation when the tumor volume reached 1500 mm^3 or the percent loss of body weight exceeded 15%, or the study was completed.
Data were analyzed statistically using GraphPad Prism version 7. Descriptive statistics (frequency, mean, percentage) were used to report tumor volume, body weights, daily change in body weights from day 1 of dosing, and the ratio of tumor volume between treatment and control groups (T/C). Statistical differences in tumor volume between treated and control groups were analyzed using two-way ANOVA, where days on which the tumor volume was measured and treatments were the two independent factors, with a two-tailed significance cut-off level of p < 0.05. Tumor growth inhibition (TGI) was calculated as %TGI = [((VCD − VCB) − (VTD − VTB))/(VCD − VCB)] × 100, where VCD and VTD were the tumor volumes of the vehicle and treated groups on the calculated day, respectively, and VCB and VTB were the tumor volumes of the vehicle and treated groups at baseline (day 1). Kaplan–Meier survival analysis was performed, and group comparisons were done with the Gehan–Breslow–Wilcoxon test with Bonferroni correction method.

[2] = Caco-2 permeability; assay type: in vitro ADME; conditions: human
[3] = system: Caco-2 monolayer; assay: Caco-2 permeability; assay type: in vitro ADME; conditions: Papp B-A/Papp A-B

SMILES: Cc1cnc(N[C@H]2CC[C@H](N)CC2)nc1-c1cnc2ccc(-c3ccccc3)cn12 [CDDD11-8]
- day from which inhibition of tumor growth was statistically significant vs vehicle ([1]; 75 mg/kg PO QD): 9 days
- increase in the life span ([1]; 75 mg/kg PO QD 28 days): 29%
- MST (median survival time) ([1]; 75 mg/kg PO QD 28 days): 49 days
- T/C% ([1]; 75 mg/kg PO QD, day 1): 101%
- % TGI ([1]; 75 mg/kg PO QD, day 3): 92%
- T/C% ([1]; 75 mg/kg PO QD, day 3): 75%
- % TGI ([1]; 75 mg/kg PO QD, day 5): 101%
- T/C% ([1]; 75 mg/kg PO QD, day 5): 60%
- % TGI ([1]; 75 mg/kg PO QD, day 7): 95%
- T/C% ([1]; 75 mg/kg PO QD, day 7): 50%
- % TGI ([1]; 75 mg/kg PO QD, day 9): 115%
- T/C% ([1]; 75 mg/kg PO QD, day 9): 32%
- % TGI ([1]; 75 mg/kg PO QD, day 11): 121%
- T/C% ([1]; 75 mg/kg PO QD, day 11): 22%
- % TGI ([1]; 75 mg/kg PO QD, day 13): 127%
- T/C% ([1]; 75 mg/kg PO QD, day 13): 12%
- % TGI ([1]; 75 mg/kg PO QD, day 15): 129%
- T/C% ([1]; 75 mg/kg PO QD, day 15): 8%
- % TGI ([1]; 75 mg/kg PO QD, day 17): 128%
- T/C% ([1]; 75 mg/kg PO QD, day 17): 6%
- % TGI ([1]; 75 mg/kg PO QD, day 19): 125%
- T/C% ([1]; 75 mg/kg PO QD, day 19): 5%
- % TGI ([1]; 75 mg/kg PO QD, day 21): 119%
- T/C% ([1]; 75 mg/kg PO QD, day 21): 5%
- % TGI ([1]; 75 mg/kg PO QD, day 23): 112%
- T/C% ([1]; 75 mg/kg PO QD, day 23): 5%
- % TGI ([1]; 75 mg/kg PO QD, day 25): 105%
- T/C% ([1]; 75 mg/kg PO QD, day 25): 9%
- % TGI ([1]; 75 mg/kg PO QD, day 27): 96%
- T/C% ([1]; 75 mg/kg PO QD, day 27): 15%
- % TGI ([1]; 75 mg/kg PO QD, day 29): 92%
- mice with unmeasurable tumor size (zero tumor volume) ([1]; 75 mg/kg PO QD): one
- animals with tumor regression ([1]; 75 mg/kg PO QD, starting on day 9, n = 7): two out of seven animals
- day from which inhibition of tumor growth was statistically significant vs vehicle ([1]; 125 mg/kg PO QD): 7 days
- increase in the life span ([1]; 125 mg/kg PO QD 28 days): 45%
- MST (median survival time) ([1]; 125 mg/kg PO QD 28 days): 55 days
- T/C% ([1]; 125 mg/kg PO QD, day 1): 102%
- % TGI ([1]; 125 mg/kg PO QD, day 3): 127%
- T/C% ([1]; 125 mg/kg PO QD, day 3): 66%
- % TGI ([1]; 125 mg/kg PO QD, day 5): 133%
- T/C% ([1]; 125 mg/kg PO QD, day 5): 47%
- % TGI ([1]; 125 mg/kg PO QD, day 7): 122%
- T/C% ([1]; 125 mg/kg PO QD, day 7): 36%
- % TGI ([1]; 125 mg/kg PO QD, day 9): 142%
- T/C% ([1]; 125 mg/kg PO QD, day 9): 16%
- % TGI ([1]; 125 mg/kg PO QD, day 11): 137%
- T/C% ([1]; 125 mg/kg PO QD, day 11): 12%
- % TGI ([1]; 125 mg/kg PO QD, day 13): 139%
- T/C% ([1]; 125 mg/kg PO QD, day 13): 4%
- % TGI ([1]; 125 mg/kg PO QD, day 15): 136%
- T/C% ([1]; 125 mg/kg PO QD, day 15): 3%
- % TGI ([1]; 125 mg/kg PO QD, day 17): 133%
- T/C% ([1]; 125 mg/kg PO QD, day 17): 2%
- % TGI ([1]; 125 mg/kg PO QD, day 19): 130%
- T/C% ([1]; 125 mg/kg PO QD, day 19): 2%
- % TGI ([1]; 125 mg/kg PO QD, day 21): 123%
- T/C% ([1]; 125 mg/kg PO QD, day 21): 2%
- % TGI ([1]; 125 mg/kg PO QD, day 23): 117%
- T/C% ([1]; 125 mg/kg PO QD, day 23): 1%
- % TGI ([1]; 125 mg/kg PO QD, day 25): 114%
- T/C% ([1]; 125 mg/kg PO QD, day 25): 1%
- % TGI ([1]; 125 mg/kg PO QD, day 27): 112%
- T/C% ([1]; 125 mg/kg PO QD, day 27): 1%
- % TGI ([1]; 125 mg/kg PO QD, day 29): 109%
- animals with tumor regression still maintained ([1]; 125 mg/kg PO QD, day 29): six out of seven mice
- mice with unmeasurable tumor size (zero tumor volume) ([1]; 125 mg/kg PO QD): three
- animals with tumor regression ([1]; 125 mg/kg PO QD, from day 7, n = 7): all the mice
- tolerability ([1]; 75 and 125 mg/kg PO QD 28 days, tumor-bearing mice): well tolerated
- efflux ratio ([2]; Caco-2, Papp B-A/Papp A-B): 4.9
- Papp A→B ([2]; Caco-2, A-B): 6.06 ± 0.49 ×10⁻⁶ cm/s
- Papp B→A ([2]; Caco-2, B-A): 29.5 ± 8.47 ×10⁻⁶ cm/s
- Caco-2 Permeability Efflux ratio [3]: 4.87
